Earlier results in US10835570B2, “Dietary supplement” (priority 2016, dated 2020).

Test system: receptors ERb and ERa
Conditions: oestrogen-like affinity, ERb versus ERa

O=c1c(-c2ccc(O)cc2)coc2cc(O)cc(O)c12 [genistein]
affinity greater for receptors ERb than for receptors ERa: 20 times
